These results are taken from publication PMC4632086, “Effects and possible mechanisms of action of acacetin on the behavior and eye morphology of Drosophila models of Alzheimer’s disease” (Scientific Reports, 2015).

Holding throughout (assay type): in vivo, Drosophila melanogaster
The subject of one data set is elav < APP/BACE-1 flies. Description: Feeding assay (Acid red intake). The following applies: 100, 300, and 500 μM; males; 2 h feeding. On the procedure:
The adult feeding assay was performed according to the methods of Wang et al.[33] and Bahadorani et al.[79]. Groups of 15 newly emerged male elav < APP/BACE-1 flies were cultured on standard media for 3 days and then starved for 20 h in vials containing three layers of Whatman no. 2 filter paper (Whatman, Maidstone, UK) soaked in DW. The flies were then transferred into vials containing media (with 0.2% Acid red) supplemented with acacetin (100, 300, and 500 μM) in 0.1% DMSO. The controls were fed with media supplemented with 0.2% Acid red and 0.1% DMSO. After 2 h of feeding, the abdomens were isolated and homogenized in 1 mL DW. After centrifugation (5000 rpm, 25 °C, 5 min), the optical density (OD) of the supernatant was measured at 505 nm, because this OD value is considered to index the amount of food intake by flies, as described by Min and Tatar[80]. All treatments were repeated three times using 15 males per replicate.

The subject of the next data set is human APP mRNA. Description: Real-time qRT-PCR, human APP mRNA in elav < APP/BACE-1 flies. The settings on record: 100, 300, and 500 μM; 20-day-old males; compared to vehicle. As to the method:
Real-time qRT-PCR with SYBR Green dye was performed to determine whether acacetin affected the expression levels of the human APP and BACE-1 mRNAs in the transgenic flies. The elav < APP/BACE-1 and elav < GFP flies were cultured from the egg stage in vials, as stated previously. The controls received 0.1% DMSO only. The total RNA was extracted from 30 heads (30 mg) of male elav < APP/BACE-1 and elav < GFP flies (20 days old) using the RNeasy Mini Kit (Qiagen, Hilden, Germany) according to the manufacturer’s instructions. The residual genomic DNA was removed using RQ1 RNase-Free DNase (Promega, Fitchburg, WI, USA), and 1 μg of the total RNA from each sample was used for complementary DNA (cDNA) synthesis with an oligo (dT) 12–18 primer (Invitrogen, Carlsbad, CA, USA) according to the protocol of the SuperScript III Reverse Transcriptase Kit. Real-time qRT-PCR was performed in 96-well plates using the StepOne Plus Real-Time PCR System (Applied Biosystems, Darmstadt, Germany). […] The mRNA expression levels of the target genes were normalized to the mRNA expression level of the housekeeping gene rp 49 that encodes the Drosophila ribosomal protein 49, and analyzed by the 2^–ΔΔCT method using the StepOne Software v2.3 and DataAssist Software (Applied Biosystems). The results are expressed as the means ± SEs of duplicate samples from three independent experiments.

Another data set concerns human APP. Description: Western blot, APP protein in heads of elav < APP/BACE-1 flies. The following applies: 20-day-old males. As to the method:
The elav < APP/BACE-1 flies were cultured from the egg stage, as described previously. The lysates were obtained from the heads of 50 male flies (20 days old) by placing the heads in 100 μL RIPA buffer (pH 8.0) containing a 1% protease inhibitor cocktail. The controls received 0.1% DMSO. The lysates were centrifuged at 14,000 rpm for 30 min at 4 °C. The protein content of the supernatant was determined using a Bradford Protein Assay kit (Sigma-Aldrich) and BSA was used as the standard. The total proteins (30 μg/sample for APP and BACE-1 detection; 70 μg/sample for Aβ detection) were mixed with an equal volume of 5× sample buffer[81] containing 40 mM of DL-dithiothreitol, boiled for 10 min, and then loaded onto 8, 10, and 12% sodium dodecyl sulfate-polyacrylamide gels using a Mini-Protean 3 electrophoresis cell (Bio-Rad, Hercules, CA, USA) for APP, APP-CTF (APP-αCTF and APP-βCTF) and AICD, BACE-1, and Aβ detection, respectively. After electrophoresis at 110 V in 2 h, the proteins from the gels were transferred onto a polyvinyl difluoride membrane (Pall Corporation, Pensacola, FL, USA) using an electroblotting apparatus. The membrane was then blocked with 5% skim milk (BD Difco, Flanklin Lakes, NJ, USA) in PBS containing 0.1% (v/v) Tween-20 (0.1% PBS-T) at room temperature for 1 h, and further incubated overnight at 4 °C with a 1:4,000 dilution of an anti-APP C-terminal antibody to detect the cleaved APP product, a 1:1,000 dilution of anti-BACE-1, and a 1:1,000 dilution of anti-amyloid (4G8). After washing with 0.1% PBS-T three times at 10 min intervals, the membranes were further incubated for 2 h with a goat anti-rabbit IgG H&L (HRP) secondary antibody at a1:4,000 dilution for APP and BACE-1 and a goat anti-mouse lgG-HRP at a 1:5,000 dilution for β-amyloid. […] The differences in protein expression were quantified using a Molecular Imager Gel Doc XR system (Bio-Rad, Hercules, CA, USA) and normalized to actin expression on the same membrane. The results are expressed as the means ± SEs of duplicate samples from three independent experiments.

A further data set relates to GMR < APP/BACE-1 flies. Description: Cason's trichrome staining of eye sections (photoreceptor degeneration). The settings on record: 100, 300, and 500 μM; 5- and 15-day-old males. On the procedure:
Cason’s trichrome staining was performed, as described by Wang et al.[33] and Perumalsamy et al.[77]. Briefly, the heads of 5- and 15-day-old male GMR < APP/BACE-1 flies, cultured in vials as stated previously, were fixed in a 4% paraformaldehyde buffer solution (pH 7.4) overnight at 4 °C, and paraffin-embedded preparations of the fly heads were then sectioned at 10 μm thickness using a HM 340E rotary microtome (Thermo Scientific Microm, Walldorf, Germany). The sections were dried at 40 °C overnight, subsequently deparaffinized with CitriSolv (Fisher Scientific, Fair Lawn, NJ, USA), and rehydrated using a series of ethanol solutions in phosphate-buffered saline (PBS). The rehydrated paraffin sections were soaked in Carson’s trichrome solution for 15 min, and the slides were gently swashed in tap water and subsequently rinsed three times in distilled water (DW). The excess water was removed with tissue paper, and the samples were mounted using Vectashield H-1000 mounting medium (Vector Laboratories, Burlingame, CA, USA).

Consider `COc1ccc(-c2cc(=O)c3c(O)cc(O)cc3o2)cc1` [acacetin], for which the “feeding (food intake)” value in the data set with elav < APP/BACE-1 flies is “did not significantly affect feeding”. The “reduction in the APP mRNA levels” value in the data set on human APP mRNA is 69–82%. The “APP levels, % of the control levels” value in the data set with human APP (100 μM, not significantly different from control) is listed as 86%; in the data set on human APP (300 μM) it was 70%; in the data set with human APP (500 μM), 69%. Besides, the photoreceptor degeneration entry with GMR < APP/BACE-1 flies is given as “partially suppressed the photoreceptor degeneration”.
